Reference: patent publication US5770590A, “Cyclic compounds, their prudiction and use” (Takeda Chemical Industries, Ltd., priority 1995, dated 1998)

Legend:
[1] = tested on: plasma extravasation induced by capsaicin in trachea; test: Inhibitory effect on plasma extravasation induced by capsaicin in trachea of guinea pigs; type: in vivo, guinea pigs (Hartley type white male); details: Table 3, Dunnett's test *p < 0.05, **p < 0.01, ***p < 0.001
Method: [Inhibitory effect on plasma extravasation induced by capsaicin in trachea of guinea pigs] Guinea pigs (Hartley type white male guinea pige), (n=6) were anesthetized with 35 mg/kg of pentobarbital injected intraperitoneally (i.p.), then test compounds were administered intravenously (i.v.). After 5 minutes, a mixed solution of capsaicin (150 μg/kg) and Evans' blue dye (20 mg/kg) was administered intravenously to cause reaction. Ten minutes later, test animals were sacrificed by cutting the aorta, then perfused through pulmonary artery with 50 ml of physiological saline. The trachea was excised, and its wet weight was measure. The trachea was incubated at room temperature in 1 ml of acetone-0.3% sodium sulfate (7:3) overnight and Evans' blue dye was extracted from the trachea. The extract solution was centrifuged at 2800 rpm for 5 minutes. The amount of Evans' blue dye in the supernatant was quantified by measuring absorbance at […]. Plasma extravasation was expressed in terms of the amount of Evans' blue dye (μg) relative to the weight of the trachea (g). The efficacy of the drug was evaluated by calculating the % inhibition in accordance with the following formula, or expressed in terms of [formula] A: the amount of Evan's blue dye (μg/g) in each test animal B: The mean amount of Evan's blue dye (μg/g) of the group untreated with capsaicin.

[2] = biological target: T1, substance P receptor (receptor from human lymphoblast cells (IM-9)) (Homo sapiens, UniProt P25103); test: Radioligand receptor binding inhibitory activity using receptor from human lymphoblast cells (IM-9), 125I-BHSP; details: Table 1, IM-9 receptor, 25° C., 30 minutes
T1 construct: The receptor was prepared from human lymphoblast cells (IM-9); endogenous in cells; host or cells: IM-9 human lymphoblast cells (crude membranes)
Method: The receptor was prepared from human lymphoblast cells (IM-9). IM-9 cells (2×10^5 cells/ml) were inoculated and incubated for 3 days (one liter), which was then subjected to centrifuge for 5 minutes at 500×g to obtain cell pellets.
After washing three times with 250 ul of 50 mM of Tris-HCl buffer (pH 7.4) containing 0.02% bovine serum albumin, the radioactivity remaining on the filter was determined with a gamma counter. Before use, the filter was immersed in 0.1% polyethyleneimine for 24 hours and air-dried.

T1 sequence (P25103 whole entry): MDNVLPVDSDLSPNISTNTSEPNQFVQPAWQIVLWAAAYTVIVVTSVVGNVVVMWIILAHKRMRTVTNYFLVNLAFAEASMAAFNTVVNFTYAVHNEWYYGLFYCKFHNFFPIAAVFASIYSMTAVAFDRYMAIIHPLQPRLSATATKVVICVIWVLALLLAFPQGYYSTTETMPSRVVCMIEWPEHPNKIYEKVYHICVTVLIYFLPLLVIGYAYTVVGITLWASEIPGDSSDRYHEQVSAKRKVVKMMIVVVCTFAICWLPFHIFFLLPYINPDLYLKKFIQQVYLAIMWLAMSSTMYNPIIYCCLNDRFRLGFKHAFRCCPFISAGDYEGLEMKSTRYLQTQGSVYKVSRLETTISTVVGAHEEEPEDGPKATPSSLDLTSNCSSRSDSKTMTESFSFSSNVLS

| SMILES | Inhibition of plasma extravasation ([1]; dose 100 μg/kg i.v.) | Inhibition of plasma extravasation ([1]; dose 10 μg/kg i.v.) | other results |
| --- | --- | --- | --- |
| Cc1cnc2c(c1-c1ccccc1)C(=O)N(Cc1cc(C(F)(F)F)cc(C(F)(F)F)c1)CCCO2 [Example 24, 5-[3,5-Bis(trifluoromethyl)benzyl]-2,3,4,5-tetrahydro-8-methyl-6-oxo-7-phenyl-6H-pyrido[2,3-b][1,5]oxazocine] | 53.1% |  |  |
| Cc1ccc(-c2c3n(c(=O)c4ncccc24)C[C@@H](C)CN(Cc2cc(C(F)(F)F)cc(C(F)(F)F)c2)C3=O)cc1 [Example 14, (9S)-7-[3,5-Bis(trifluoromethyl)benzyl]-6,7,8,9,10,12-hexahydro-9-methyl-5-(4-methylphenyl)-6,12-dioxo[1,4]diazepino[2,1-g][1,7]naphthyridine] |  |  | IC50 [2]: 0.28 nM |
| Cc1cnc2c(c1-c1ccccc1)C(=O)N(Cc1cc(C(F)(F)F)cc(C(F)(F)F)c1)CCO2 [Example 23, 4-[3,5-Bis(trifluoromethyl)benzyl]-2,3,4,5-tetrahydro-7-methyl-5-oxo-6-phenylpyrido[3,2-f][1,4]oxazepine] | 64.0% |  |  |
| O=C1c2c(-c3ccccc3)ccnc2OCCCN1Cc1cc(C(F)(F)F)cc(C(F)(F)F)c1 [Example 22, 5-[3,5-Bis(trifluoromethyl)benzyl]-2,3,4,5-tetrahydro-6-oxo-7-phenyl-6H-pyrido[2,3-b][1,5]oxazocine] | 41.2% |  |  |
| Cc1ccc(-c2c3n(c(=O)c4ncccc24)CCC(C)CN(Cc2cc(C(F)(F)F)cc(C(F)(F)F)c2)C3=O)cc1 (racemic) [Example 16, (+/-)-7-[3,5-Bis(trifluoromethyl)benzyl]-6,7,8,9,10,11-hexahydro-9-methyl-5-(4-methylphenyl)-6,13-dioxo-13H-[1,4]diazocino[2,1-g][1,7]naphthyridine] |  | 60.5% |  |
| CC1CCn2c(c(-c3ccccc3)c3cccnc3c2=O)C(=O)N(Cc2cc(C(F)(F)F)cc(C(F)(F)F)c2)C1 (racemic) [Example 15, (+/-)-7-[3,5-Bis(trifluoromethyl)benzyl]-6,7,8,9,10,11-hexahydro-9-methyl-6,13-dioxo-5-phenyl-13H-[1,4]diazocino[2,1-g][1,7]naphthyridine] |  | 68.4% |  |
